Data: patent publication US20100081679A1, “DIAMINOPYRIMIDINES AS FUNGICIDES” (Bayer CropScience AG, priority 2007, published 2010)
Marks after values point to notes of the source that are not given here.

Assay: logP determination via retention times, calibrated with unbranched alkan-2-ones
Format: physicochemical
Details: HPLC on reversed-phase C 18, EEC Directive 79/831 Annex V.A8; method *: 40° C., 0.1% aqueous formic acid and acetonitrile, linear gradient 10% to 95% acetonitrile

| Compound | logP |
| --- | --- |
| CCC(=O)Nc1cccc(Nc2ncc(Br)c(NCC3CC3)n2)c1 [compound 483] | 1.66* |
| O=C(Nc1cccc(Nc2ncc(Cl)c(NCC3CC3)n2)c1)c1ccccc1 [compound 557] | 2.21* |
| CCC(=O)Nc1cccc(Nc2ncc(Cl)c(NCC3CC3)n2)c1 [compound 508] | 1.61* |
| Fc1ccc(Nc2ncc(Cl)c(NCC3CC3)n2)cc1 [compound 550] | 1.97* |
| FC(F)C(F)(F)Oc1cccc(Nc2ncc(Cl)c(NCC3CC3)n2)c1 [compound 527] | 2.95* |
| CCC(=O)c1cc(Nc2ncc(Br)c(NCC3CC3)n2)ccc1O [compound 488] | 2.21* |
| CC1COC(=O)N1c1cccc(Nc2ncc(Br)c(NC3CC3)n2)c1 (stereo not drawn) [compound 533] | 1.68* |
| Fc1ccc(Nc2ncc(Br)c(NC3CC3)n2)cc1 [compound 499] | 1.96* |
| COc1cc(Nc2ncc(Br)c(NC3CC3)n2)ccc1Cl [compound 532] | 2.70* |
| CCN(C(C)=O)c1ccc(Nc2ncc(Br)c(NCC3CC3)n2)cc1 [compound 480] | 1.83* |

Same assay, conditions: HPLC on reversed-phase C 18, method **: 43° C.; 0.1% aqueous phosphoric acid and acetonitrile; linear gradient 10% to 95% acetonitrile

| Compound | logP |
| --- | --- |
| CSc1cccc(Nc2ncc(Cl)c(N(C)C3CC3)n2)c1 [compound 738] | 3.59** |
| COc1cc(Nc2ncc(C(F)(F)F)c(NC3CC3)n2)cc(OC)c1OC [compound 719] | 2.56** |

Same assay, conditions: HPLC on reversed-phase C18, method **: 43° C.; mobile phase 0.1% aqueous phosphoric acid and acetonitrile; linear gradient 10% to 95% acetonitrile

| Compound | logP |
| --- | --- |
| CC(C)NS(=O)(=O)Cc1ccc(Nc2ncc(Cl)c(NC3CC3)n2)cc1 [compound 324] | 1.75** |

Same assay, conditions: HPLC on reversed-phase C18, method *: 40° C., 0.1% aqueous formic acid and acetonitrile, linear gradient 10% to 95% acetonitrile

| Compound | logP |
| --- | --- |
| Clc1cc(Cl)cc(Nc2ncc(Br)c(NC3CC3)n2)c1 [compound 749] | 4.43* |
| O=C1OCCN1c1ccc(Nc2ncc(Br)c(NC3CC3)n2)cc1 [compound 175] | 1.37* |
| CC(O)c1cccc(Nc2ncc(C(F)(F)F)c(NCC3CC3)n2)c1 (stereo not drawn) [compound 705] | 2.16* |
| NS(=O)(=O)c1cc(Nc2ncc(Cl)c(NCC3CC3)n2)ccc1Cl [compound 693] | 1.83* |
| FC(F)(F)c1cccc(Nc2ncc(Cl)c(NC3CC3)n2)c1 [compound 950] | 3.03* |
| Clc1cnc(Nc2cccc(Cl)c2Cl)nc1NC1CC1 [compound 937] | 3.76* |
| Oc1cccc(Nc2ncc(Br)c(NC3CC3)n2)c1 [compound 765] | 1.39* |
| CSc1cccc(Nc2ncc(Cl)c(NCC3CC3)n2)c1 [compound 119] | 2.27* |
| CCC(=O)Nc1ccc(Nc2ncc(C(F)(F)F)c(NC3CC3)n2)cc1 [compound 710] | 1.93* |
| COc1cc(Nc2ncc(Br)c(NC3CC3)n2)cc(OC)c1OC [compound 761] | 1.71* |
| C=CCOc1cccc(Nc2ncc(Cl)c(NC3CC3)n2)c1 [compound 715] | 2.37* |
| CC(=O)Nc1cc(Nc2ncc(Br)c(NC3CC3)n2)ccc1C [compound 113] | 1.35* |
| CC(C)C(=O)Nc1ccc(Nc2ncc(C(F)(F)F)c(NC3CC3)n2)cc1 [compound 663] | 2.11* |
| CCC(=O)Nc1ccc(Nc2ncc(Cl)c(NC3CC3)n2)cc1 [compound 711] | 1.24* |
| Cc1cc(Cl)c(Br)cc1Nc1ncc(Cl)c(NC2CC2)n1 [compound 933] | 3.46* |
| O=S(=O)(c1cccc(Nc2ncc(Cl)c(NCC3CC3)n2)c1)N1CCCCC1 [compound 675] | 2.16* |
| COc1ccc(Nc2ncc(Br)c(NC3CC3)n2)cc1OC [compound 742] | 1.53* |
| CN(C)Cc1cccc(Nc2ncc(Cl)c(NC3CC3)n2)c1 [compound 718] | 0.79* |

Same assay, conditions: HPLC on reversed-phase C18, method *: 40° C.; mobile phase 0.1% aqueous formic acid and acetonitrile; linear gradient 10% to 95% acetonitrile

| Compound | logP |
| --- | --- |
| CC(=O)N(C)c1ccc(Nc2ncc(Br)c(NC3CC3)n2)cc1 [compound 349] | 1.54* |
| CC(C)(C)C(=O)Nc1ccc(Nc2ncc(Br)c(NC3CC3)n2)cc1 [compound 347] | 1.83* |
| CC(C)(C)NC(=O)c1ccc(Nc2ncc(Br)c(NC3CC3)n2)cc1 [compound 352] | 2.18* |
| Clc1cccc(Nc2ncc(Cl)c(NC3(c4ccccc4Cl)CC3)n2)c1 [compound 319] | 5.18* |
| COc1cccc(Nc2ncc(Cl)c(NC3CC3)n2)c1 [compound 283] | 1.8* |
| CC(=O)c1cccc(Nc2ncc(Br)c(NC3CC3)n2)c1 [compound 358] | 1.85* |

Same assay, conditions: HPLC on reversed-phase C18 column (EEC Directive 79/831 Annex V.A8); method *: 40° C.; 0.1% aqueous formic acid and acetonitrile; linear gradient 10% to 95% acetonitrile

| Compound | logP |
| --- | --- |
| O=S(=O)(Cc1cccc(Nc2ncc(Cl)c(NC3CC3)n2)c1)N1CCCCC1 [compound 262] | 2.24* |
| COc1cc(Nc2ncc(Cl)c(NC3CC3)n2)ccc1Cl [compound 256] | 2.53* |
| CC(C)(C)C(=O)Nc1cccc(Nc2ncc(C(F)(F)F)c(NCC3CC3)n2)c1 [compound 205] | 2.77* |
| CC(=O)c1cccc(Nc2ncc(C(F)(F)F)c(NCC3CC3)n2)c1 [compound 211] | 2.77* |
| FC(F)(F)Nc1cccc(Nc2ncc(Cl)c(NC3CC3)n2)c1 [compound 184] | 3.55* |
| CN(C)C(=O)c1ccc(Nc2ncc(C(F)(F)F)c(NCC3CC3)n2)cc1 [compound 206] | 2.13* |

Same assay, conditions: HPLC reversed-phase C 18, EEC Directive 79/831 Annex V.A8; method **: 43° C., 0.1% aqueous phosphoric acid and acetonitrile, linear gradient 10% to 95% acetonitrile

| Compound | logP |
| --- | --- |
| Cc1nc(Nc2cccc(N3CCCC3=O)c2)nc(NC2CC2)c1Cl [compound 838] | 1.47** |

Same assay, conditions: HPLC reversed-phase C 18, EEC Directive 79/831 Annex V.A8; method *: 40° C., 0.1% aqueous formic acid and acetonitrile, linear gradient 10% to 95% acetonitrile

| Compound | logP |
| --- | --- |
| CCSC(C)c1cccc(Nc2ncc(Br)c(NC3CC3)n2)c1 (stereo not drawn) [compound 797] | 3.09* |
| CSc1cccc(Nc2ncc(I)c(NC3CC3)n2)c1 [compound 858] | 2.44* |
| CCSC(C)c1cccc(Nc2ncc(Cl)c(NC3CC3)n2)c1 (stereo not drawn) [compound 810] | 2.82* |
| CC(C)(C)c1cccc(Nc2ncc(Br)c(NC3CC3)n2)c1 [compound 779] | 3.14* |
| O=C1COCCN1c1cccc(Nc2ncc(Cl)c(NC3CC3)n2)c1 [compound 791] | 1.2* |
| COC(C)c1cccc(Nc2ncc(Cl)c(NC3CC3)n2)c1 (stereo not drawn) [compound 806] | 1.96* |
| COCC(C)NC(=O)c1cccc(Nc2ncc(Cl)c(NC3CC3)n2)c1 (stereo not drawn) [compound 796] | 1.47* |

Same assay, conditions: method **: HPLC reversed-phase C 18, 43° C., 0.1% aqueous phosphoric acid and acetonitrile, linear gradient 10% to 95% acetonitrile

| Compound | logP |
| --- | --- |
| Cl.Clc1cnc(Nc2ccccc2)nc1NC1CC1 [Example 29] | 1.75** |
| C=CCNS(=O)(=O)c1ccc(Nc2ncc(Cl)c(NC3CC3)n2)cc1 [compound 31] | 2.09** |
| CCCCNS(=O)(=O)c1ccc(Nc2ncc(Cl)c(NC3CC3)n2)cc1 [Example 22] | 2.6** |
| O=C(O)c1ccc(Nc2ncc(Cl)c(NC3CC3)n2)cc1 [Example 35] | 1.55** |
| O=C1CCCN1c1ccc(Nc2ncc(Br)c(NCC3CC3)n2)cc1 [compound 457] | 1.59** |

Same assay, conditions: method **: HPLC, reversed-phase C 18, 43° C., mobile phase 0.1% aqueous phosphoric acid and acetonitrile, linear gradient from 10% to 95% acetonitrile

| Compound | logP |
| --- | --- |
| CC1(C)CC1Nc1nc(Nc2ccccc2)ncc1Cl (stereo not drawn) [compound 1027] | 2.37** |
| COCc1cccc(Nc2ncc(Cl)c(N(Cc3ccc(OC)cc3)C3CC3)n2)c1 [compound 1044] | 4.07** |

Same assay, conditions: method *: HPLC reversed-phase C18, 40° C., 0.1% aqueous formic acid and acetonitrile, linear gradient 10% to 95% acetonitrile

| Compound | logP |
| --- | --- |
| CCCSc1cccc(Nc2ncc(Cl)c(NC3CC3)n2)c1 [compound 437] | 3.33* |
| N#Cc1ccc(Nc2ncc(Cl)c(NC3CC3)n2)cc1 [compound 374] | 2.33* |
| CCSc1cccc(Nc2ncc(Cl)c(NC3CC3)n2)c1 [compound 436] | 2.72* |
| CN(C)S(=O)(=O)c1ccc(Nc2ncc(Br)c(NCC3CC3)n2)cc1 [compound 449] | 2.51* |
| CC(C)C(=O)Nc1cccc(Nc2ncc(Cl)c(NC3CC3)n2)c1 [Example 86] | 1.63* |
| O=C1CCCN1c1ccc(Nc2ncc(Br)c(NCC3CC3)n2)cc1 [compound 457] | 1.66*; |

Same assay, conditions: method *: HPLC reversed-phase C 18, temperature 40° C.; mobile phase 0.1% aqueous formic acid and acetonitrile; linear gradient 10% to 95% acetonitrile

| Compound | logP |
| --- | --- |
| CC(C)(C)C(=O)Cc1ccc(Nc2ncc(C(F)(F)F)c(NC3CC3)n2)cc1 [compound 655] | 3.33* |
| CN(C)C(=O)c1cccc(Nc2ncc(C#N)c(NC3CC3)n2)c1 [compound 614] | 1.83* |
| O=S(=O)(c1cccc(Nc2ncc(C(F)(F)F)c(NC3CC3)n2)c1)N1CCCCC1 [compound 654] | 2.77* |
| O=C(NC1CC1)c1cccc(Nc2ncc(Br)c(NC3CC3)n2)c1 [compound 628] | 1.49* |
| N#Cc1ccc(Nc2ncc(F)c(NC3CC3)n2)cc1 [compound 575] | 1.73* |
| CSc1ccc(Nc2ncc(Cl)c(NCC3CC3)n2)cc1Cl [compound 626] | 3.15* |

Same assay, conditions: method *: HPLC, reversed-phase C 18, 40° C., mobile phase 0.1% aqueous formic acid and acetonitrile, linear gradient from 10% to 95% acetonitrile

| Compound | logP |
| --- | --- |
| CCC(CC)c1ccc(Nc2ncc(Cl)c(NC3CC3)n2)cc1 [compound 1033] | 3.41* |
| CC1(C)CC1Nc1nc(Nc2ccccc2)ncc1Cl (stereo not drawn) [compound 1027] | 2.37*; |
| CCCS(=O)(=O)c1cccc(Nc2ncc(C(F)(F)F)c(NCC3CC3)n2)c1 [compound 1068] | 3.25* |

Same assay, conditions: pH 2.3; read-out: logP (pH2.3)

| Compound | chromatographic logP |
| --- | --- |
| CC(C)NC(=O)c1ccc(Nc2ncc(Cl)c(NC3CC3)n2)cc1 [Example 43, 4-{[5-Chloro-4-(cyclopropylamino)pyrimidin-2-yl]amino}-N-isopropylbenzamide] | 1.73 |
| O=C(O)c1ccc(Nc2ncc(Cl)c(NC3CC3)n2)cc1 [4-{[5-chloro-4-(cyclopropylamino)pyrimidin-2-yl]amino}benzoic acid] | 1.55 |
| Fc1cnc(Cl)nc1NC1CC1 [2-chloro-N-cyclopropyl-5-fluoropyrimidine-4-amine] | 1.42 |
| O=c1[nH]c(Nc2ccccc2)ncc1Cl [2-Anilino-5-chloropyrimidin-4(3H)-one] | 1.56 |

Same assay, conditions: reversed-phase C18 HPLC column; method **: HPLC reversed-phase C 18, 43° C., 0.1% aqueous phosphoric acid and acetonitrile, linear gradient 10% to 95% acetonitrile; read-out: logP

| Compound | chromatographic logP |
| --- | --- |
| CC(C)NC(=O)c1ccc(Nc2ncc(Cl)c(NC3CC3)n2)cc1 [Example 43, 4-{[5-Chloro-4-(cyclopropylamino)pyrimidin-2-yl]amino}-N-isopropylbenzamide] | 1.73 |
